Experimental data taken from the Deep4Chem optical property database.

Assay: photoluminescence quantum yield (fraction); solvent given as SMILES

Structure (SMILES): COc1c2ccccc2c(OC)c2c(C#CC(C)(C)C)c3cc4ccccc4cc3c(C#CC(C)(C)C)c12
- photoluminescence quantum yield (in C1CCOC1): 0.11
- photoluminescence quantum yield (in Cc1ccccc1): 0.1
- photoluminescence quantum yield (in ClCCl): 0.09

Structure (SMILES): COc1ccc(-c2csc(/C(C#N)=C/c3ccc([N+](=O)[O-])cc3)n2)cc1
- photoluminescence quantum yield (in CC#N): 0

Structure (SMILES): C[Si](C)(C)C#C[Si](c1c2ccccc2cc2ccccc12)(c1c2ccccc2cc2ccccc12)c1c2ccccc2cc2ccccc12
- photoluminescence quantum yield (in ClC(Cl)Cl): 0.04

Structure (SMILES): CCCCN1C(=O)c2cc(Oc3ccc(C(C)(C)C)cc3)c3c4c(Oc5ccc(C(C)(C)C)cc5)c(Oc5ccc(C(C)(C)C)cc5)c5c6c(cc(Oc7ccc(C(C)(C)C)cc7)c(c7c(Oc8ccc(C(C)(C)C)cc8)c(Oc8ccc(C(C)(C)C)cc8)c(c2c37)C1=O)c64)C(=O)N(CCCC)C5=O
- photoluminescence quantum yield (in ClC(Cl)Cl): 0.75

Structure (SMILES): COc1ccc(-c2nc(-c3cccc(C#N)c3)[nH]c2-c2ccc(OC)cc2)cc1
- photoluminescence quantum yield (in CO): 0.06

Structure (SMILES): CN(C)c1cccc(/C=C/c2ncc(-c3ccc(OCc4ccccc4)c(OCc4ccccc4)c3)o2)c1
- photoluminescence quantum yield (in ClCCl): 0.37

Structure (SMILES): F[B-]1(F)n2c(cc3sc4ccccc4c32)C(c2ccc(I)cc2)=C2C=c3sc4ccccc4c3=[N+]21
- photoluminescence quantum yield (in ClC(Cl)Cl): 0.05

Structure (SMILES): N#Cc1ccc(N2c3ccccc3C(c3ccccc3)(c3ccccc3)c3ccccc32)cc1
- photoluminescence quantum yield (in Cc1ccccc1): 0.22

Structure (SMILES): [O-][n+]1c(-c2ccccc2)cc(N2CCOCC2)nc1/C=C/c1ccccc1
- photoluminescence quantum yield (in ClCCl): 0.2

Structure (SMILES): N#Cc1c(-n2cc(-c3ccccc3)nn2)n([C@H]2C[C@H](O)[C@@H](CO)O2)c2ncnc(N)c12
- photoluminescence quantum yield (in CO): 0.004

Structure (SMILES): CCCCc1ccc(-n2c3c4cc(F)ccc4nnc3c3c2c2nnc4ccc(F)cc4c2n3-c2ccc(CCCC)cc2)cc1
- photoluminescence quantum yield (in Cc1ccccc1): 0

Structure (SMILES): Cn1ccc(-n2cncn2)nc1=O
- photoluminescence quantum yield (in O): 0.114

Structure (SMILES): CC(C)c1cc(C(C)C)c(B2c3ccccc3Oc3cc(N4c5ccccc5C5(c6ccccc6-c6ccccc65)c5ccccc54)ccc32)c(C(C)C)c1
- photoluminescence quantum yield (in Cc1ccccc1): 0.76

Structure (SMILES): CN(C)c1ccc(C#CC2=C3CCc4ccccc4C3=[O+][B-](F)(F)O2)cc1
- photoluminescence quantum yield (in ClCCl): 0

Structure (SMILES): COc1ccc(C2=[O+][B-](F)(F)OC(c3ccc4c(c3)Cc3ccccc3-4)=C2)cc1
- photoluminescence quantum yield (in CC#N): 0.94

Structure (SMILES): O=P1(c2ccccc2)c2cccc3c4c5ccccc5c5ccccc5c4c4ccc1n4c23 (stereo not given)
- photoluminescence quantum yield (in ClCCl): 0.97

Structure (SMILES): F[Si-](F)(c1c2ccccc2cc2ccccc12)(c1c2ccccc2cc2ccccc12)c1c2ccccc2cc2ccccc12
- photoluminescence quantum yield (in C1CCOC1): 0.64

Structure (SMILES): CC[n+]1nc2cc3c(cc2c2cc(C)ccc21)N(C)CCC3
- photoluminescence quantum yield (in O): 0.54

Structure (SMILES): CCn1c2ccccc2c2ccc(C#N)cc21
- photoluminescence quantum yield (in C1CCCCC1): 0.12

Structure (SMILES): CC1=C(C#Cc2ccccc2)C(C)=[N+]2C1=C(c1ccccc1)c1c(C)c(C#Cc3ccccc3)c(C)n1[B-]2(F)F
- photoluminescence quantum yield (in C1CCOC1): 0.6
- photoluminescence quantum yield (in ClCCl): 0.82

Structure (SMILES): COc1ccc([C@@H]2C[C@](O)(c3ccccn3)C[C@](O)(c3ccccn3)[C@H]2C(=O)c2ccc(N(c3ccccc3)c3ccccc3)cc2)cc1
- photoluminescence quantum yield (in C1CCOC1): 0.5
- photoluminescence quantum yield (in CC#N): 0.02
- photoluminescence quantum yield (in CCO): 0.01
- photoluminescence quantum yield (in CCOC(C)=O): 0.42
- photoluminescence quantum yield (in CN(C)C=O): 0.03
- photoluminescence quantum yield (in ClCCl): 0.26
- photoluminescence quantum yield (in c1ccccc1): 0.93

Structure (SMILES): CC(C)[Si](C#Cc1c2cc3ccccc3cc2c(C#Cc2ccc(C(F)(F)F)cc2)c2cc3ccccc3cc12)(C(C)C)C(C)C
- photoluminescence quantum yield (in ClCCl): 0.06

Structure (SMILES): CCCCN1C(=O)c2cc(Oc3ccc(C(C)(C)C)cc3)c3c4c(Oc5ccc(C(C)(C)C)cc5)cc5c(=O)[nH]/c(=C\c6ccccn6)c6cc(Oc7ccc(C(C)(C)C)cc7)c(c7c(Oc8ccc(C(C)(C)C)cc8)cc(c2c37)C1=O)c4c56
- photoluminescence quantum yield (in C1CCOC1): 0.336
- photoluminescence quantum yield (in Cc1ccccc1): 0.408
- photoluminescence quantum yield (in ClCCl): 0.421

Structure (SMILES): COc1cc2c3c4c(c5ccc(C(C)(C)C)cc5c5c(OC)cc(OC)c(c2c(OC)c1OC)c45)=[N+]1C3=Nc2c3c4cc(OC)c(OC)c(OC)c4c4c(OC)cc(OC)c5c6cc(C(C)(C)C)ccc6c(c3c54)n2[B-]1(F)F
- photoluminescence quantum yield (in Cc1ccccc1): 0.13

Structure (SMILES): COc1ccc(/C2=C3N=C(C(c4ccccc4)=C/3c3ccccc3)/C(c3ccc(OC)cc3)=c3\[nH]/c(c(-c4ccccc4)c3-c3ccccc3)=C(/c3ccc(OC)cc3)C3=N/C(=C(/c4ccc(OC)cc4)c4[nH]c2c(-c2ccccc2)c4-c2ccccc2)C(c2ccccc2)=C3c2ccccc2)cc1
- photoluminescence quantum yield (in ClCCl): 0.006

Structure (SMILES): CC(C)CCCN1c2ccccc2CCc2ccccc21
- photoluminescence quantum yield (in CC#N): 0.029
- photoluminescence quantum yield (in CO): 0.021

Structure (SMILES): COc1cc(C=O)cc(-c2[nH]c(=O)n3c2-c2ccccc2C3=O)c1O
- photoluminescence quantum yield (in CC#N): 0.33
- photoluminescence quantum yield (in CO): 0.04
- photoluminescence quantum yield (in ClCCl): 0.93

Structure (SMILES): Cc1ccc(C#Cc2ccc3nc4ccc(C#Cc5ccc(C)cc5)cn4c(=O)c3c2)cc1
- photoluminescence quantum yield (in ClCCl): 0.43

Structure (SMILES): N#Cc1cc(C#N)c(-c2ccc(N(c3ccccc3)c3ccccc3)cc2)cc1-c1ccc(N(c2ccccc2)c2ccccc2)cc1
- photoluminescence quantum yield (in C1CCCCC1): 0.75

Structure (SMILES): CC1=C(C#Cc2ccccc2)C2=Cc3c(C#Cc4ccccc4)c(C)c(C)n3[B-](F)(F)[N+]2=C1C
- photoluminescence quantum yield (in CC#N): 1

Structure (SMILES): O=C1CCCC2=C1C(c1cccc(Cl)c1)c1c(c3ccccc3oc1=O)N2 (stereo not given)
- photoluminescence quantum yield (in CS(C)=O): 0.6

Structure (SMILES): CC1=C(c2ccccc2)C(C)=[N+]2C1=C(c1ccccc1)c1c(C)c(-c3ccccc3)c(C)n1[B-]2(F)F
- photoluminescence quantum yield (in Cc1ccccc1): 0.325

Structure (SMILES): N#C/C(=C\c1ccc(C#N)cc1)c1nc(-c2ccc(Cl)cc2)c(-c2ccccc2)s1
- photoluminescence quantum yield (in CC#N): 0.114

Structure (SMILES): Cc1nc2c(ccc3c2sc(/C=C/C=C/c2ccc(N(C)C)cc2)[n+]3C)s1
- photoluminescence quantum yield (in CO): 0.032
- photoluminescence quantum yield (in ClC(Cl)Cl): 0.16

Structure (SMILES): c1cc2ccc1-c1ccc(cc1)-c1ccc([se]1)-c1ccc(cc1)-c1ccc(cc1)-c1ccc([se]1)-c1ccc(cc1)-c1ccc(cc1)-c1ccc-2[se]1
- photoluminescence quantum yield (in C1CCOC1): 0.08

Structure (SMILES): CC(C)(C)c1ccc(-c2nnc(-c3c(-n4c5ccccc5c5ccccc54)c(-n4c5ccccc5c5ccccc54)c(-c4nnc(-c5ccc(C(C)(C)C)cc5)o4)c(-n4c5ccccc5c5ccccc54)c3-n3c4ccccc4c4ccccc43)o2)cc1
- photoluminescence quantum yield (in c1cc(-n2c3ccccc3c3ccccc32)nc(-n2c3ccccc3c3ccccc32)c1): 0.89

Structure (SMILES): CC(C)(C)OC(=O)/C=C/C1=CC2=C(c3ccccc3)c3cccn3[B-](F)(F)[N+]2=C1
- photoluminescence quantum yield (in ClCCl): 0.1

Structure (SMILES): Cc1cccc2cc(-c3cc4cccc(C)c4oc3=O)oc12
- photoluminescence quantum yield (in CS(C)=O): 0.88

Structure (SMILES): Cc1ccc(-c2ccc3ccc4cc(C(C)(C)C)cc5ccc2c3c45)cc1
- photoluminescence quantum yield (in C1CCOC1): 0.41
- photoluminescence quantum yield (in ClCCl): 0.38
